Results as given in paper PMC5309245, “Discovery and Characterization of Diazenylaryl Sulfonic Acids as Inhibitors of Viral and Bacterial Neuraminidases” (Frontiers in Microbiology, 2017).

Key:
[1] = molecular target: IAV WSN/33 NA-wt (whole virus) (Influenza A virus, UniProt P03470); assay: biochemical; set-up: species or system influenza A virus A/WSN/1933 (H1N1); conditions: for IC50: NA inhibition using FL assay IC50, IAV WSN/33
[2] = molecular target: IAV HK/68 NA (whole virus) (Influenza A virus, UniProt Q91MA2); assay: biochemical; set-up: species or system influenza A virus A/Hong Kong/68 (H3N2); conditions: for IC50: NA inhibition using FL assay IC50, IAV HK/68
[3] = molecular target: T1, S. pneumoniae DSM20566 NA (NanA) (Streptococcus pneumoniae, UniProt P62575); assay: FL NA inhibition assay, S. pneumoniae DSM20566; format: biochemical; conditions: MUNANA substrate; for IC50: read-out: NA inhibition using FL assay IC50, S. p. DSM20566
T1 construct: host or cells: either rNanA from E. coli BL21(DE3) or total precipitated protein of S. pneumoniae DSM20566

[4] = system: IAV 5258/09 NA; assay: Hemagglutination (HA)-based NA inhibition assay, IAV 5258/09; format: cell-based, influenza A virus A/Jena/5258/2009 (H1N1); conditions: human erythrocytes
[5] = molecular target: T2, S. pneumoniae DSM20566 NA (Streptococcus pneumoniae, UniProt P62575); assay: HA-based NA inhibition assay, S. pneumoniae DSM20566; format: cell-based; conditions: human erythrocytes
T2 construct: host or cells: either rNanA from E. coli BL21(DE3) or total precipitated protein of S. pneumoniae DSM20566

[6] = system: influenza A virus 8178/09; assay: microbe, parasite or virus in culture; format: cell-based, influenza A virus A/Jena/8178/2009 (H1N1)
[7] = system: influenza A virus WSN/33; assay: microbe, parasite or virus in culture; format: cell-based, influenza A virus A/WSN/1933 (H1N1)
[8] = system: influenza A virus HK/68; assay: microbe, parasite or virus in culture; format: cell-based, influenza A virus A/Hong Kong/68 (H3N2)
[9] = system: S. pneumoniae DSM20566; assay: Microtiter broth microdilution assay, planktonic growth; format: cell-based, Streptococcus pneumoniae DSM20566; conditions: 18 h, maximum 50 μM
[10] = system: S. pneumoniae DSM20566 biofilm; assay: Biofilm inhibition assay; format: cell-based, Streptococcus pneumoniae DSM20566
[11] = system: human erythrocytes; format: cell-based; conditions: human erythrocytes, 2 h at 4°C
Method: (§1) Viral (whole virus) and bacterial NA activity as well as their inhibition were measured by using a fluorescence (FL) assay with the substrate 2′-(4-methylumbelliferyl)-α-D-N-acetylneuraminic acid sodium salt hydrate (MUNANA, 100 μM; Sigma-Aldrich GmbH, Taufkirchen, Germany), and/or a hemagglutination (HA)-based NA inhibition assay (HA assay) with human erythrocytes (Institute of Transfusion Medicine, University Hospital Jena, Jena, Germany), both assays as published recently (Richter et al., [2015]). Recombinant NanA (rNanA) and total precipitated bacterial protein of S. pneumoniae DSM20566 were used in FL and HA assays. Interference of the compounds with the FL signal (self-fluorescence and quenching) was excluded as described previously (Richter et al., [2015]). […] Each compound was tested at least three times in both NA inhibition assays.
Supplementary Table 1. Assay interference phenomena of test compounds in the HA-based […]
sample concentrations [µM] in viral HA-assay bacterial HA-assay […]
hem- prevention of erythrocyte hem- erythrocyte agglutinationa virus-induced lysisc agglutinationd lysise […]
cTest compounds lysed the human erythrocytes (2 h at 4°C). […]

[12] = system: human erythrocytes; format: cell-based; conditions: human erythrocytes, 4 h at 37°C and 12 h at 4°C
Method: as §1
Supplementary Table 1. […]
eTest compounds lysed the human erythrocytes (4 h at 37°C and 12 h at 4°C).

[13] = in vitro; conditions: dog

Chain of IAV HK/68 NA (whole virus) (Q91MA2 whole entry, looked up): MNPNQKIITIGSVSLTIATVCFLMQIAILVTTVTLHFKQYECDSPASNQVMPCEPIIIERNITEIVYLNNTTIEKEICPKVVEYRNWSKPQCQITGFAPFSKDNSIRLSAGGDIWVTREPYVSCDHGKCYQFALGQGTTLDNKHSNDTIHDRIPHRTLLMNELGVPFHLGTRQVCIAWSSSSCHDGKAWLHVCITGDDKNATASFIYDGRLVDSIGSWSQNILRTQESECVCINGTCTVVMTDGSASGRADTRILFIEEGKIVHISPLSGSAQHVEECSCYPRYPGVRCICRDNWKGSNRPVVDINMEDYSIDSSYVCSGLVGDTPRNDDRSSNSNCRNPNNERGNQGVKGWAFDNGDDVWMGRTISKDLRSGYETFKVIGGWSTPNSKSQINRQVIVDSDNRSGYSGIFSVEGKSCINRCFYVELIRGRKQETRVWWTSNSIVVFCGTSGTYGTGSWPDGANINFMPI
Chain of IAV WSN/33 NA-wt (whole virus) (P03470 whole entry, looked up): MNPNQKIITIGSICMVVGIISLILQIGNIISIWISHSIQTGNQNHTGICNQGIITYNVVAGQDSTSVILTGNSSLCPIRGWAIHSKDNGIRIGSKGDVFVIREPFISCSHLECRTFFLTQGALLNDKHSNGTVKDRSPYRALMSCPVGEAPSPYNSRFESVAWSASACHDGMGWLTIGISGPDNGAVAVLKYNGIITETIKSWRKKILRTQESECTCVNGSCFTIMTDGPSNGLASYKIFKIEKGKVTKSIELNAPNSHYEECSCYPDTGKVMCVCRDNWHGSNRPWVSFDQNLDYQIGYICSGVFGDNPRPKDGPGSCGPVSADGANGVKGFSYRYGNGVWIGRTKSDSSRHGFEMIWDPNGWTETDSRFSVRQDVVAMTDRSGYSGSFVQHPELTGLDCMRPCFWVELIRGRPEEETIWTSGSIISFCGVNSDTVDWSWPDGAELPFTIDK
T2 sequence (P62575 54-1035): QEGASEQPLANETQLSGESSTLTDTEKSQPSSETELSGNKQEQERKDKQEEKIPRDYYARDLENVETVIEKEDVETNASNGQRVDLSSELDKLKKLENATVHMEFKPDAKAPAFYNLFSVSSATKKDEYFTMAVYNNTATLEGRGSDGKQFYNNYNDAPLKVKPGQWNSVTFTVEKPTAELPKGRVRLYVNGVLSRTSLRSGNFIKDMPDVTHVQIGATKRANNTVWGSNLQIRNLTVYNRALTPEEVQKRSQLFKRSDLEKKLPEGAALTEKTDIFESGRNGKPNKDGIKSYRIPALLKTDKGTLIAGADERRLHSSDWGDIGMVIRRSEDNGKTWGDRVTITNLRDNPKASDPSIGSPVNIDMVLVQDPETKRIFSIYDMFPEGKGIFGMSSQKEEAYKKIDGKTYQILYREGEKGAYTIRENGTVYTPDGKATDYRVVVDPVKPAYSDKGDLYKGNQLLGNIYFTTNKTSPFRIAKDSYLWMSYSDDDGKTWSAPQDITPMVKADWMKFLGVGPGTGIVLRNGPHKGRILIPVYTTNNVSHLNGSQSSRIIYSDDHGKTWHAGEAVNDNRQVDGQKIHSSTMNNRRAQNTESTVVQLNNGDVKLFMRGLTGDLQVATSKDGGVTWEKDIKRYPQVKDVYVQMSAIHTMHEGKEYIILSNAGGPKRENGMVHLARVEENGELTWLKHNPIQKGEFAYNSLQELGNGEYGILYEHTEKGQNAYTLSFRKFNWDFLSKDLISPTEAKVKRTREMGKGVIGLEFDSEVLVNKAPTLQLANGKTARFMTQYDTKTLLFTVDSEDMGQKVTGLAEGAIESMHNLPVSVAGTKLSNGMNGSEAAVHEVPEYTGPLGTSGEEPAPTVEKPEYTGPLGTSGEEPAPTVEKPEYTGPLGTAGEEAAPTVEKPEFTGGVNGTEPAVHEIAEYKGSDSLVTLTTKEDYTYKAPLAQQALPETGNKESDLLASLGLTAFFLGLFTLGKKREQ
T1 sequence (P62575 54-1035): as above

SMILES	IC50 [1]	NA inhibition using FL assay IC50, IAV HK/68 [2]	IC50 [3]	NA inhibition using HA assay MIC, IAV 5258/09 [4]	NA inhibition using HA assay MIC, S. p. DSM20566 [5]	50% inhibitory concentration, influenza A virus 8178/09 [6]	50% inhibitory concentration, influenza A virus WSN/33 [7]	50% inhibitory concentration, influenza A virus HK/68 [8]	50% inhibitory concentration, S. pneumoniae DSM20566 planktonic growth [9]	50% inhibitory concentration, S. pneumoniae DSM20566 biofilm formation ([10]; 24 h, maximum 50 μM)	sample concentrations provoking erythrocyte lysis, viral HA-assay [11]	sample concentrations provoking erythrocyte lysis, bacterial HA-assay [12]	CC50 [13]	IC50 [2]	NA inhibition using FL assay IC50, IAV WSN/33 [1]	NA inhibition using FL assay IC50, S. p. DSM20566 [3]	IC50 ([10]; Streptococcus pneumoniae, DSM20566, 24 h, maximum 50 μM, read-out: 50% inhibitory concentration, S. pneumoniae DSM20566 biofilm formation)	IC50 ([9]; Streptococcus pneumoniae, DSM20566, read-out: 50% inhibitory concentration, S. pneumoniae DSM20566 planktonic growth)	inhibition at 50 µM ([10]; Streptococcus pneumoniae, DSM20566, 50 μM, read-out: Inhibition of biofilm formation at the maximum tested concentration)
O=S(=O)(O)c1cc(/N=N/c2c(O)ccc3ccccc23)c2c(S(=O)(=O)O)cccc2c1 [Compound 15]	28.7 ± 3.3 µM	Not active	46.8 ± 5.27 µM	Not active^c	Not active^c	Not active	Not active	Not active	Not active	Not active	no	no	> 100 µM	–	–	–	–	–	–
O=S(=O)(O)c1ccc(/N=N/c2ccc(/N=N/c3c(O)c(S(=O)(=O)O)cc4cc(S(=O)(=O)O)ccc34)cc2)cc1 [Compound 9]	22.7 ± 2.91 µM	Not active	32 ± 10.9 µM	Not active	Not active	Not active	Not active	Not active	Not active	Not active	no	no	> 100 µM	–	–	–	–	–	–
O=[N+]([O-])c1ccc(/N=N/c2c(O)ccc3cc(S(=O)(=O)O)ccc23)cc1 [Compound 11]	33.1 ± 4.6 µM	–	23.2 ± 13.1 µM	Not active	Not active	Not active	Not active	Not active	Not active	Not active	no	no	> 100 µM	77.3 ± 10.6 µM	–	–	–	–	–
O=S(=O)(O)c1ccc2c(/N=N/c3ccccc3)c(O)ccc2c1 [Compound 10]	–	Not active	10.2 ± 1.35 µM	Not active^c	Not active^c	Not active	Not active	Not active	Not active	Not active	no	no	> 100 µM	–	Not active	–	–	–	–
COc1cc(/N=N/c2ccc(S(=O)(=O)O)cc2)ccc1/N=N/c1c(O)ccc2cc(S(=O)(=O)O)ccc12 [Compound 8]	6.51 ± 0.72 µM	Not active	3.9 ± 0.51 µM	Not active	Not active	Not active	Not active	Not active	Not active	Not active	no	no	> 100 µM	–	–	–	–	–	–
O=S(=O)(O)c1cc2cccc(S(=O)(=O)O)c2c(O)c1/N=N/c1ccccc1 [Compound 17]	–	Not active	–	Not active	Not active	Not active	Not active	Not active	Not active	Not active	no	no	> 100 µM	–	Not active	Not active	–	–	–
Cc1ccccc1/N=N/c1ccc(/N=N/c2c(O)ccc3cc(S(=O)(=O)O)cc(S(=O)(=O)O)c23)c(C)c1 [Compound 5]	–	–	0.97 ± 0.3 µM	10.00 ± 0.00 µM	2.44 ± 1.25 µM	Not active	Not active	Not active	Not active	–	no	no	> 100 µM	17.8 ± 3.25 µM	–	–	42.2 ± 2.57 µM	–	–
O=S(=O)(O)c1cc(S(=O)(=O)O)c2c(/N=N/c3cccc4ccccc34)c(O)ccc2c1 [Compound 16]	44.3 ± 2.38 µM	Not active	7.68 ± 0.98 µM	31.60 ± 0.00 µM	24.40 ± 12.47 µM	Not active	Not active	Not active	–	–	no	no	> 100 µM	–	–	–	–	12 ± 6.81 µM	46%
O=S(=O)(O)c1ccc2c(/N=N/c3c(O)ccc4ccccc34)cccc2c1 [Compound 14]	28.9 ± 6.9 µM	–	5.74 ± 1.41 µM	Not active^c	Not active^c	Not active	Not active	Not active	Not active	Not active	no	no	> 100 µM	83 ± 6.25 µM	–	–	–	–	–
O=[N+]([O-])c1ccc(/N=N/c2c(O)c(S(=O)(=O)O)cc3cc(S(=O)(=O)O)ccc23)cc1 [Compound 12]	–	Not active	–	Not active	Not active	Not active	Not active	Not active	Not active	Not active	no	no	> 100 µM	–	Not active	Not active	–	–	–
